Numbering of substitutions follows the chain as printed.
Columns and labels:
Experiment in all cases: single sensillum extracellular recording, Ir decoder neuron
Conditions in all cases: 1% v/v odor in water, 10 ul, 500 ms pulse; agonist
DmelIr75b^DsecS1 [1] = target: T1, DmelIr75b^DsecS1 (Drosophila melanogaster, UniProt A0A1S6EMU4, I210K/M217L/K220Q/N259S/I277M/F289L/Q291K/P473S/G492S/A520T/T523S, form not given); assay type: cell-based
T1 construct: gene IR75b; UAS transgene in Ir decoder neuron; with Ionotropic receptor 8a (D. melanogaster, endogenous)
T1 sequence (A0A1S6EMU4 1-609 I210K/M217L/K220Q/N259S/I277M/F289L/Q291K/P473S/G492S/A520T/T523S): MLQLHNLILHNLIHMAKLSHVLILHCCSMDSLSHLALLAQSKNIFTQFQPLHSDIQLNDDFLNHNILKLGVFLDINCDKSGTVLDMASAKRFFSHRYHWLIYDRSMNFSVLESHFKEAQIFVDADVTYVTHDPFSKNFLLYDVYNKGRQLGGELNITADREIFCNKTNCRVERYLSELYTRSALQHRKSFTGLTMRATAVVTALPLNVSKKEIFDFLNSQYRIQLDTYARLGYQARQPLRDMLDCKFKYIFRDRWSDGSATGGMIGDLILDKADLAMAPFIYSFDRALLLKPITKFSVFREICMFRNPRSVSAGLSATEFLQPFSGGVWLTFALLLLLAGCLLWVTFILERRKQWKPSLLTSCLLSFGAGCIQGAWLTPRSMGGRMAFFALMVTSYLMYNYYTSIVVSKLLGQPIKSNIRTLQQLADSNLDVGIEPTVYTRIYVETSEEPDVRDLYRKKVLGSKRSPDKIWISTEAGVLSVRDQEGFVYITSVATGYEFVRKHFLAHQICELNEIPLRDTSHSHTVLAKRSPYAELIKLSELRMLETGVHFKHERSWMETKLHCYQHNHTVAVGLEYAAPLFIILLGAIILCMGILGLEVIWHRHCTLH
T1 sequence (Q9W365 18-936 partner): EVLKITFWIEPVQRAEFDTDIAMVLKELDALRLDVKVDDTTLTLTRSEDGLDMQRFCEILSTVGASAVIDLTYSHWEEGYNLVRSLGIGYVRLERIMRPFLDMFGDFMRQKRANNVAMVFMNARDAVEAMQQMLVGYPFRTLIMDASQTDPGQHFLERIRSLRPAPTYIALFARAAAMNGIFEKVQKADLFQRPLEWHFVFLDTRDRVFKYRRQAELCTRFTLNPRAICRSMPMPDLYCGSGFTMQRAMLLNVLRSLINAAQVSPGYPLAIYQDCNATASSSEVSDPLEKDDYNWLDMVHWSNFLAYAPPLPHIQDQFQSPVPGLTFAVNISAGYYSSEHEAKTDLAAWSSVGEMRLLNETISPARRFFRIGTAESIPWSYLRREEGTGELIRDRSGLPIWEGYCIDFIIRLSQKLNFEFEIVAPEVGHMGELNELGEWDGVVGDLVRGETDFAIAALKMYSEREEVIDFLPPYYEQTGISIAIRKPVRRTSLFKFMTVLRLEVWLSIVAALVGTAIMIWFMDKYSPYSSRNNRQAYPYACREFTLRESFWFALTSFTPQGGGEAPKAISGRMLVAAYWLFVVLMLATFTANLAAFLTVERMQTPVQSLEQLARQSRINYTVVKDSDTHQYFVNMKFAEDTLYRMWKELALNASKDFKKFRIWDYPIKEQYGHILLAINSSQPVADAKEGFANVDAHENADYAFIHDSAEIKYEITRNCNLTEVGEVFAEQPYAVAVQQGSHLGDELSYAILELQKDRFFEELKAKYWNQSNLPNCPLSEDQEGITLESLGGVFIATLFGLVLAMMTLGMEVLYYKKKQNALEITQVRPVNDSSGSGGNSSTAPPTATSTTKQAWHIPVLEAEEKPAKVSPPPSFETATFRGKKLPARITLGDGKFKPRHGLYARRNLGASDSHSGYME

DmelIr75b^DsecS1 [2] = target: T2, DmelIr75b^DsecS1 (Drosophila melanogaster, UniProt A0A1S6EMU4, I210K/M217L/K220Q/N259S/I277M/F289L/Q291K, form not given); assay type: cell-based
T2 construct: gene IR75b; UAS transgene in Ir decoder neuron; with Ionotropic receptor 8a (D. melanogaster, endogenous)
T2 sequence (A0A1S6EMU4 1-609 I210K/M217L/K220Q/N259S/I277M/F289L/Q291K): T1 sequence (A0A1S6EMU4 1-609 I210K/M217L/K220Q/N259S/I277M/F289L/Q291K/P473S/G492S/A520T/T523S) with S473P, S492G, T520A, S523T
T2 sequence (Q9W365 18-936 partner): T1 sequence (Q9W365 18-936 partner)

DmelIr75b = target: T3, DmelIr75b (Drosophila melanogaster, UniProt A0A1S6EMU4, T523S); assay type: cell-based
T3 construct: gene IR75b; cDNA, UAS transgene expressed in D. melanogaster Ir decoder neuron with endogenous Ir8a; predicted heterotetramer; with Ionotropic receptor 8a (D. melanogaster, endogenous)
T3 sequence (A0A1S6EMU4 1-609 T523S): T1 sequence (A0A1S6EMU4 1-609 I210K/M217L/K220Q/N259S/I277M/F289L/Q291K/P473S/G492S/A520T/T523S) with K210I, L217M, Q220K, S259N, M277I, L289F, K291Q, S473P, S492G, T520A
T3 sequence (Q9W365 18-936 partner): T1 sequence (Q9W365 18-936 partner)

DsecIr75b = target: T4, DsecIr75b (Drosophila sechellia, UniProt A0A1S6EMU3); assay type: cell-based, Drosophila melanogaster
T4 construct: gene IR75b; cDNA, UAS transgene expressed in D. melanogaster Ir decoder neuron with D. melanogaster Ir8a; predicted heterotetramer; with Ionotropic receptor 8a (D. melanogaster, endogenous)
T4 sequence (A0A1S6EMU3 1-609): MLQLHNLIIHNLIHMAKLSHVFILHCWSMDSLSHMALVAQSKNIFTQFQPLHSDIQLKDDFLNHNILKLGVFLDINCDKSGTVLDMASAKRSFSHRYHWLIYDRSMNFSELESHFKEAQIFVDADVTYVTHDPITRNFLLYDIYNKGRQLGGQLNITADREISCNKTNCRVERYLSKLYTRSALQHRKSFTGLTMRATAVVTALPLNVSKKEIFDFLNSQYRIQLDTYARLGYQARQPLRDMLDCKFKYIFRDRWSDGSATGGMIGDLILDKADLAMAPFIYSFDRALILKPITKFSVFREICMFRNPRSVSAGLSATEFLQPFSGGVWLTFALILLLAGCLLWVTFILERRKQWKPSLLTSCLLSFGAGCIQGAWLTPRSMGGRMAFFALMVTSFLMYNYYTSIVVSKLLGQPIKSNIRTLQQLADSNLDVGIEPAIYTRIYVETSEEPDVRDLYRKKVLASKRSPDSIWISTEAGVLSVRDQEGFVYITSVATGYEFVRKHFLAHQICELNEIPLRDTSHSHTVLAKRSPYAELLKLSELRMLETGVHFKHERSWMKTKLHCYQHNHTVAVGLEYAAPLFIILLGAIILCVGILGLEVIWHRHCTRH
T4 sequence (Q9W365 18-936 partner): T1 sequence (Q9W365 18-936 partner)

CCCCCC(=O)O [C6, hexanoic acid]
solvent-corrected response (spikes/s) (DmelIr75b^DsecS1 [1]): DmelIr75b^DsecS1,4mutS2 still has a significantly increased sensitivity to C6 when compared with DmelIr75b | solvent-corrected response (spikes/s) (DmelIr75b^DsecS1 [2]): DmelIr75b^DsecS1, with significantly increased responses to C6 | solvent-corrected response (spikes/s) (DmelIr75b): mutation of the hotspot in DmelIr75b is sufficient to confer novel responses to C5 and C6 | solvent-corrected response (spikes/s) (DsecIr75b): its response to C6 is significantly smaller than that of DsecIr75b

From article PMC8575457, “Molecular reconstruction of recurrent evolutionary switching in olfactory receptor specificity” (eLife, 2021)
